According to patent US11440913B2, “Aminoimidazopyridazines as kinase inhibitors” (BRISTOL-MYERS SQUIBB COMPANY, priority 2017, dated 2022):
Where two headings read alike, the source gives them in different places.

What was measured:
[1] = system: MLKL phosphorylation in HT29-L23 human colorectal adenocarcinoma cells; test: MLKL Phosphorylation High-Content Assay; assay type: cell-based; conditions: 6 h, necroptosis induced with TNFα, SMAC mimetic and Z-VAD, read-out: pMLKL (IC50)
Summary of the method: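 HT29-L23 cells pretreated 30 min at 37 °C with compound (6.25 to 0.106 μM final), then necroptosis induced with TNFα 35 ng/mL, SMAC mimetic 700 nM and Z-VAD 140 nM for 6 h. Fixed cells immunostained for MLKL pS358 and imaged; IC50 and Ymax from 4-parameter logistic fit.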

[2] = molecular target: His-GST-TVMV-hRIPK1(1-324) (Homo sapiens (Human), UniProt Q13546); test: RIPK1 HTRF Binding Assay; conditions: HTRF binding, 1 h at rt; read-out: RIPK1 (IC50)
Chain of His-GST-TVMV-hRIPK1(1-324) (Q13546 1-324): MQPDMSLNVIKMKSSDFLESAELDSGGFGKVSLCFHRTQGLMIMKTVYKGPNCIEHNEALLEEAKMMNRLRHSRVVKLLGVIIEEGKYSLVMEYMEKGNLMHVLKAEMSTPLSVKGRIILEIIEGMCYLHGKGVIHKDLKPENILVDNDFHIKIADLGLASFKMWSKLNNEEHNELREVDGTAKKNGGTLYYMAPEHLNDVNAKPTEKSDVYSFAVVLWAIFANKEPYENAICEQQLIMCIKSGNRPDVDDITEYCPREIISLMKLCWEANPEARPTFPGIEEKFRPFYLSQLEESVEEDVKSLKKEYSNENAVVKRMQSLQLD
Summary of the method: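 HTRF probe-displacement binding: 1 nM His-GST-TVMV-hRIPK1(1-324) (baculovirus construct), 90.6 nM probe, 0.2 nM anti-GST-Tb in 20 mM HEPES, 10 mM MgCl2, 0.015% Brij-35, 4 mM DTT, 0.05 mg/mL BSA. Incubated 1 h at rt; FRET 520/495 nm ratio, inhibition relative to DMSO-only wells.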

`CC(=O)Nc1cn2nc(-c3ccc(C)c(C(=O)NCc4cc(-c5cnn(C6CC6)c5)ccc4F)c3F)ccc2n1` [Example 409, N-{[5-(1-cyclopropyl-1H-pyrazol-4-yl)-2-fluorophenyl]methyl}-3-{2-acetamidoimidazo [1,2-b]pyridazin-6-yl}-2-fluoro-6-methylbenzamide] showed an IC50 ([1]; Homo sapiens) of 13 nM and an IC50 [2] of 2 nM.

`CC(=O)Nc1cn2nc(-c3ccc(C)c(C(=O)NCc4cc(F)ccc4-c4cnn(C5CC5)c4)c3F)ccc2n1` [Example 410, N-{[2-(1-cyclopropyl-1H-pyrazol-4-yl)-5-fluorophenyl]methyl}-3-{2-acetamidoimidazo [1,2-b]pyridazin-6-yl}-2-fluoro-6-methylbenzamide] was tested, and the IC50 ([1]; Homo sapiens) was 77 nM and the IC50 [2] was 39 nM.

`CC(=O)Nc1cn2nc(-c3ccc(C)c(C(=O)NCc4ccc(F)c(F)c4C(=O)N4CCC(F)(F)C4)c3F)ccc2n1` [Example 411, N-{[2-(3,3-difluoropyrrolidine-1-carbonyl)-3,4-difluorophenyl]methyl}-3-{2-acetamidoimidazo [1,2-b]pyridazin-6-yl}-2-fluoro-6-methylbenzamide] was tested, and the IC50 ([1]; Homo sapiens) was 25 nM and the IC50 [2] was 9 nM.

`[2H]C([2H])([2H])[C@@H](NC(=O)c1c(C)ccc(-c2ccc3nc(NC(C)=O)cn3n2)c1F)c1cc(OC(F)(F)F)ccc1F` [Example 412, 3-{2-acetamidoimidazo [1,2-b]pyridazin-6-yl}-2-fluoro-N-[(1R)-1-[2-fluoro-5-(trifluoromethoxy)phenyl](2,2,2-Â^2Hâ,f)ethyl]-6-methylbenzamide] was tested, and the IC50 ([1]; Homo sapiens) was 1 nM and the IC50 [2] was 4 nM.

For `[2H]C([2H])([2H])[C@@H](NC(=O)c1c(C)ccc(-c2ccc3nc(NC(C)=O)cn3n2)c1F)c1cc(C(F)(F)F)ccc1F` [Example 413, 3-{2-acetamidoimidazo [1,2-b]pyridazin-6-yl}-2-fluoro-N-[(1R)-1-[2-fluoro-5-(trifluoromethyl)phenyl](2,2,2-Â^2Hâ,f)ethyl]-6-methylbenzamide], the IC50 ([1]; Homo sapiens) was 1 nM and the IC50 [2] was 3 nM.

Compound `COc1c(F)cc(F)cc1CNC(=O)c1c(C)ccc(-c2ccc3nc(NC(C)=O)cn3n2)c1F` [Example 414, N-[(3,5-difluoro-2-methoxyphenyl)methyl]-3-{2-acetamidoimidazo [1,2-b]pyridazin-6-yl}-2-fluoro-6-methylbenzamide] has an IC50 ([1]; Homo sapiens) of 384 nM and an IC50 [2] of 91 nM.

Work on `CC(=O)Nc1cn2nc(-c3cc(C(=O)NCc4cc(C(=O)N5CCCC5(C)C)ccc4F)c(C)cc3F)ccc2n1` [Example 416, N-{[5-(2,2-dimethylpyrrolidine-1-carbonyl)-2-fluorophenyl]methyl}-5-{2-acetamidoimidazo [1,2-b]pyridazin-6-yl}-4-fluoro-2-methylbenzamide] yielded an IC50 ([1]; Homo sapiens) of 72 nM and an IC50 [2] of 13 nM.

In the case of `[2H]C([2H])([2H])Oc1cc(C)c(-c2ccc3nc(NC(C)=O)cn3n2)cc1C(=O)NCc1cc(OC(F)(F)F)ccc1F` [Example 417], the IC50 ([1]; Homo sapiens) is reported as 9 nM and the IC50 [2] is reported as 4 nM.

Work on `COc1cc(F)c(-c2ccc3nc(NC(C)=O)cn3n2)cc1C(=O)NCc1cc(F)ccc1C(=O)N1CCCC1(C)C` [Example 419, N-{[2-(2,2-dimethylpyrrolidine-1-carbonyl)-5-fluorophenyl]methyl}-5-{2-acetamidoimidazo [1,2-b]pyridazin-6-yl}-4-fluoro-2-methoxybenzamide] yielded an IC50 ([1]; Homo sapiens) of 28 nM and an IC50 [2] of 4 nM.

`COc1cc(F)c(-c2ccc3nc(NC(C)=O)cn3n2)cc1C(=O)NCc1c(F)cccc1OC` [Example 420, 5-{2-acetamidoimidazo [1,2-b]pyridazin-6-yl}-4-fluoro-N-[(2-fluoro-6-methoxyphenyl)methyl]-2-methoxybenzamide] was tested, and the IC50 ([1]; Homo sapiens) was 77 nM and the IC50 [2] was 90 nM.

`COc1cc(C)c(-c2ccc3nc(NC(C)=O)cn3n2)cc1C(=O)NCc1cc(OC(F)(F)F)ccc1F` [Example 421, 5-{2-acetamidoimidazo [1,2-b]pyridazin-6-yl}-N-{[2-fluoro-5-(trifluoromethoxy)phenyl]methyl}-2-methoxy-4-methylbenzamide] was tested, and the IC50 ([1]; Homo sapiens) was 10 nM and the IC50 [2] was 2 nM.

In the case of `COc1cc(C)c(-c2ccc3nc(NC(=O)CO)cn3n2)cc1C(=O)NCc1cc(OC(F)(F)F)ccc1F` [Example 422, N-(2-fluoro-5-(trifluoromethoxy)benzyl)-5-(2-(2-hydroxyacetamido)imidazo[1,2-b]pyridazin-6-yl)-2-methoxy-4-methylbenzamide], the IC50 ([1]; Homo sapiens) is reported as 75 nM and the IC50 [2] is reported as 6 nM.

For `CC(=O)Nc1cn2nc(-c3cccc(C(=O)NCc4cc(OC(F)(F)F)ccc4F)c3F)ccc2n1` [Example 424, 3-{2-acetamidoimidazo [1,2-b]pyridazin-6-yl}-2-fluoro-N-{[2-fluoro-5-(trifluoromethoxy)phenyl]methyl} benzamide], the IC50 ([1]; Homo sapiens) was 3 nM and the IC50 [2] was 2 nM.

For `O=C(CN1CCC(F)(F)CC1)Nc1cn2nc(-c3cccc(C(=O)NCc4cc(OC(F)(F)F)ccc4F)c3F)ccc2n1` [Example 427, 3-{2-[2-(4,4-difluoropiperidin-1-yl)acetamido]imidazo [1,2-b]pyridazin-6-yl}-2-fluoro-N-{[2-fluoro-5-(trifluoromethoxy)phenyl]methyl} benzamide], the IC50 ([1]; Homo sapiens) was 3 nM and the IC50 [2] was 7 nM.

`O=C(CN1CCC(C(F)(F)F)CC1)Nc1cn2nc(-c3cccc(C(=O)NCC[C@@H](O)c4ccc(Cl)cc4)c3F)ccc2n1` [Example 428, N-[(3R)-3-(4-chlorophenyl)-3-hydroxypropyl]-2-fluoro-3-(2-{2-[4-(trifluoromethyl)piperidin-1-yl]acetamido}imidazo[1,2-b]pyridazin-6-yl)benzamide] gave an IC50 ([1]; Homo sapiens) of 9 nM and an IC50 [2] of 12 nM.

With `[2H]C([2H])([2H])[C@H](NC(=O)c1ccc(C)c(-c2ccc3nc(NC(C)=O)cn3n2)c1F)c1cc(OC(F)(F)F)ccc1F` [Example 429, 3-{2-acetamidoimidazo [1,2-b]pyridazin-6-yl}-2-fluoro-N-[(1S)-1-[2-fluoro-5-(trifluoromethoxy)phenyl](2,2,2-Â^2Hâ,f)ethyl]-4-methylbenzamide] the IC50 ([1]; Homo sapiens) was 20 nM and the IC50 [2] was 9 nM.

`CC(=O)Nc1cn2nc(-c3cc(C(=O)NCc4cc(OC(F)(F)F)ccc4F)ccc3Cl)ccc2n1` [Example 431, 4-chloro-3-{2-acetamidoimidazo [1,2-b]pyridazin-6-yl}-N-{[2-fluoro-5-(trifluoromethoxy)phenyl]methyl} benzamide] gave an IC50 ([1]; Homo sapiens) of 91 nM and an IC50 [2] of 7 nM.

For `CC(=O)Nc1cn2nc(-c3cc(C(=O)NCc4cc(OC(F)(F)F)ccc4F)ccc3F)ccc2n1` [Example 432, 3-{2-acetamidoimidazo [1,2-b]pyridazin-6-yl}-4-fluoro-N-{[2-fluoro-5-(trifluoromethoxy)phenyl]methyl} benzamide], the IC50 ([1]; Homo sapiens) was 149 nM and the IC50 [2] was 36 nM.

“N-({3,5-difluoro-2-[(3S)-oxolan- 3-yloxy]phenyl}methyl)-5-{2- acetamidoimidazo[1,2-b]pyridazin- 6-yl}-2-(D3)methoxypyridine- 3-carboxamide [Example 45]” was tested, and the IC50 [1] was 25 nM and the IC50 [2] was 13 nM.

In the case of “N-[(1R)-1-[2-fluoro-5- (trifluoromethyl)- phenyl]ethyl]-2- methyl-5-(2-{2-[4- (trifluoromethyl)piperidin-1- yl]acetamido}imidazo[1,2- b]pyridazin-6-yl)pyridine-3- carboxamide [Example 331]”, the IC50 [1] is reported as 68 nM and the IC50 [2] is reported as 42 nM.

“N-{[3,5-difluoro-2-(oxan-3- yloxy)phenyl]methyl}-5-{2- acetamidoimidazo[1,2-b]pyridazin- 6-yl}-2-(deutero)methoxy-6- methylpyridine-3-carboxamide [Example 170]” showed an IC50 [1] of 3 nM and an IC50 [2] of 4 nM.

“N-{[3,5-difluoro-2-(oxan-4- yloxy)phenyl](deutero)methyl}- 5-{2-acetamidoimidazo[1,2-b] pyridazin-6-yl}- 2-methylpyridine- 3-carboxamide [Example 192]” showed an IC50 [1] of 5 nM and an IC50 [2] of 3 nM.
